Laboratory results taken from PMC6675714 (Cancer Medicine, 2019).
Entries after “also recorded” stand apart in the source; their conditions may differ.

Tests used:
[1] = Plasma chemistry parameters after the trial; assay type: in vivo, tumor bearing NOD-SCID mice
Protocol: Supplementary Table 1. Summary of plasma chemistry parameters metabolic analytes for three specimens (collected 72h after the last dose of 10mg/kg/72h at the end of a 21 day trial) from 3 tumor bearing NOD-SCID (NOD/LtSz-Prkdscid/j. The study criteria reflect pathological criterion used in clinical studies. Metabolic markers were quantified from freshly isolated plasma and compared to reference range.

[2] = Hematology values (complete blood count) after the trial; assay type: in vivo, NOD-SCID mice
Protocol: Supplementary Table 2. Summary of hematology values (mean) for three specimens (collected 72h after the last dose of 10mg/kg/72h at the end of a 21 day trial (NOD/LtSz-Prkdscid/j. Complete blood counts of each group (n = 3 mice per group). Heparinized blood acquired from mice was assessed using the automatic Hematology Analyzer. Blood smears were carried out and fixed with methanol, stained, and observed under the microscope to carry out differential blood white cell counts.

Caki‐1 xenograft tumors [3] = experiment: Protein expression in tumor lysates (Proteome Profiler arrays); assay type: in vivo, NOD.CB17‐Prkdc SCID/J mice; conditions: tumor lysate, 21‐day trial, vs vehicle
Protocol: Whole tumors were extracted at the trial endpoint and lysed. Before application to the array, protein concentration was determined by BCA. Then 150 µg of lysate was incubated for 24 hours with the Proteome Profiler Human XL Oncology Array (ARY026, R&D Systems) and Human Cell Stress Array (ARY018, R&D Systems). The relative expression levels of the proteases were determined according to the manufacturer's protocol, and signal intensities were compared using HLImage^++ software.

Caki‐1 xenograft tumors [4] = experiment: Cell proliferation (Ki67) and apoptosis (cleaved caspase 3) in tumor sections; assay type: in vivo, NOD.CB17‐Prkdc SCID/J mice; conditions: tumors at 21‐day trial endpoint
Protocol: Tissue sections were prepared by embedding in OCT (Thermo Fisher Scientific, Waltham, MA) followed by freezing at − 80°C. Vessel leakiness was evaluated following tail‐vein injection of 100 μL of Dextran Texas Red (Invitrogen). Vessel integrity was assessed after tail‐vein injection of 50 μL of lectin labelled with FITC (Vector Labs, Burlingame, CA). Apoptotic cells were visualized using an anti‐rabbit cleaved caspase 3 primary antibody (Cell Signaling Technology, Danvers, MA) and an goat‐anti‐rabbit Alexa Fluor 594 secondary antibody (Cell Signaling Technology); proliferating cells were visualized using an anti‐mouse Ki67 primary antibody (Cell Signaling Technology) and an goat‐anti‐mouse Alexa Fluor 488 secondary antibody (Cell Signaling Technology); DAPI containing ProLong Gold Antifade Mounting Medium (Cell Signaling Technology) was used to visualize the nuclei and mount the slide.
For all histological analyses, tumors from treated mice were compared to those of the vehicle control of the intervention trial. Samples from 4 mice per treatment group were analyzed. Stained samples were imaged at 20× magnification (ZEISS LSM 700). Cell proliferation and apoptosis were quantified one channel at a time using ImageJ (NIH, open access software) and were calculated as the percentage of Ki67 positive or cleaved caspase 3 positive cells per DAPI positive cells per field of view.

[5] = Body and organ weights at necropsy after the trial; assay type: in vivo, NOD.CB17‐Prkdc scid/J mice
xenograft Caki‐1 tumors = experiment: Xenograft renal cancer intervention (efficacy) trial; assay type: in vivo, NOD.CB17‐Prkdc SCID/J mice; conditions: 10 mg/kg/72h ip
Source text: Tissue samples were processed as described above and analyzed for Ru and Au content using ICP‐MS
Percent of change in tumor burden in a cohort of 3 females and 3 males NOD.CB17‐Prkdc scid/J mice inoculated subcutaneously with 5 × 10^6 Caki‐1 cells. The treatment started when tumors were palpable (~5 mm diameter). […] (A) Representative histological samples of tumors resected from each treatment group.

[6] = plasma 72h after last dose of 10mg/kg/72h, 21 day trial
[7] = automatic count, blood 72h after last dose, 21 day trial, mean n = 3
[8] = 21 day course once/72h, mean and SEM, n = 3
[9] = Supplementary Table 3, end of trial

For “[Cl2(p‐cymene)Ru(μ‐dppm)Au(IMes)]ClO4 [RANCE‐1]”, the “Clinical chemistry, treated vs control animals” value ([1]; end of trial) was “no differences”, the Kidney health indicators ([1]; end of trial) was “within normal values” and the DBIL [1, 6] was 0.033 mg/dL. The GGT [1, 6] was 0 U/L, the IBIL [1, 6] was 0.2 mg/dL and the TCO2 [1, 6] was 18 mEq/L. For the same substance, the “Anion Gap” value ([1]; plasma 72h after last dose of 10mg/kg/72h, 21 day trial, marked *▴) was 37.63, the CREA ([1]; plasma 72h after last dose of 10mg/kg/72h, 21 day trial, reference range 0.2-0.5) was 0.117 mg/dL and the TBIL ([1]; plasma 72h after last dose of 10mg/kg/72h, 21 day trial, reference range 0.2-0.6) was 0.23 mg/dL. It also gave a GLOB ([1]; plasma 72h after last dose of 10mg/kg/72h, 21 day trial, reference range 1.7-2.2) of 2.63 g/dL, an ALB ([1]; plasma 72h after last dose of 10mg/kg/72h, 21 day trial, reference range 2.4-4.3) of 2.57 g/dL and an ALT ([1]; plasma 72h after last dose of 10mg/kg/72h, 21 day trial, reference range 27-195) of 170.66 U/L. It also gave an AST ([1]; plasma 72h after last dose of 10mg/kg/72h, 21 day trial, reference range 54-77) of 394.67 U/L, a CHOL ([1]; plasma 72h after last dose of 10mg/kg/72h, 21 day trial, reference range 55-169) of 87.67 mg/dL and a TRIG ([1]; plasma 72h after last dose of 10mg/kg/72h, 21 day trial, reference range 67-289, marked *▾) of 116 mg/dL. It also gave an ALP ([1]; plasma 72h after last dose of 10mg/kg/72h, 21 day trial, reference range 105-370, marked *▾) of 39.33 U/L, a Cl ([1]; plasma 72h after last dose of 10mg/kg/72h, 21 day trial, reference range 111-134) of 106 mEq/L and a GLU ([1]; plasma 72h after last dose of 10mg/kg/72h, 21 day trial, reference range 172-372, marked *▾) of 165 mg/dL. It also gave an RBC ([2]; automatic count, blood 72h after last dose of 10mg/kg/72h, 21 day trial, mean n = 3, reference range 7.84-10.84) of 10.31 M/uL, a PDW [2, 7] of 7.5 fL and an RDW-SD [2, 7] of 31.03 fL. It also gave an RET ([2]; automatic count, blood 72h after last dose, 21 day trial, mean n = 3, reference range 2.56-4.56, marked *▾) of 2.03%, an MPV ([2]; automatic count, blood 72h after last dose, 21 day trial, mean n = 3, reference range 4.2-6.3) of 6.53 fL and an HGB ([2]; automatic count, blood 72h after last dose, 21 day trial, mean n = 3, reference range 11.8-17.6) of 15.8 g/dL. For the same substance, the MCH ([2]; automatic count, blood 72h after last dose, 21 day trial, mean n = 3, reference range 13.7-17.2) was 15.37 pg, the RDW-CV ([2]; automatic count, blood 72h after last dose, 21 day trial, mean n = 3, reference range 17.3-20.3) was 23.5% and the MCHC ([2]; automatic count, blood 72h after last dose, 21 day trial, mean n = 3, reference range 25.1-31.3) was 29.9 g/dL. For the same substance, the HCT ([2]; automatic count, blood 72h after last dose, 21 day trial, mean n = 3, reference range 44.1-58.3) was 52.8%, the MCV ([2]; automatic count, blood 72h after last dose, 21 day trial, mean n = 3, reference range 51.1-58.6) was 51.3 fL and the “RET#” value ([2]; automatic count, blood 72h after last dose, 21 day trial, mean n = 3, reference range 294-444, marked *▾) was 192.67 K/uL. For the same substance, the PLT ([2]; automatic count, blood 72h after last dose, 21 day trial, mean n = 3, reference range 651-2055, marked *▾) was 1056.67 K/uL, the “Morphology (manual differential section)” value ([2]; blood smears, end of 21 day trial) was “Many neutrophils are hypersegmented” and the “Morphology (automatic count section)” value ([2]; blood smears, three specimens, end of 21 day trial) was 2+ PLT clumps. RBC morphology is within normal limits. 4+ polychromasia. 2+ acanthocytes. 4+ polychromasia. 2+ acanthocytes. For the same substance, the “Physicochemical study and complete blood count” value ([2]; end of trial) was “no significant changes”, the “Band#” value ([2]; manual differential, blood 72h after last dose, 21 day trial) was 0 K/uL and the “MONO#” value ([2]; manual differential, blood 72h after last dose, 21 day trial, reference range 0.03-0.26) was 0 K/uL. The “LYMPH#” value ([2]; manual differential, blood 72h after last dose, 21 day trial, reference range 0.23-1.56, marked *▴) was 0.6167 K/uL, the “Neut#” value ([2]; manual differential, blood 72h after last dose, 21 day trial, reference range 0.54-3.16, marked *▴, ◎) was 8.55 K/uL and the MONO ([2]; manual differential, blood 72h after last dose, 21 day trial, reference range 1.71-10.93, marked *▾) was 2%. For the same substance, the LYMPH ([2]; manual differential, blood 72h after last dose, 21 day trial, reference range 13.51-42.61, marked *▾) was 15.67%, the NEUT ([2]; manual differential, blood 72h after last dose, 21 day trial, reference range 44.21-79.92, marked *▴) was 80.67% and the “CCL7 and CCL8 levels” value (Caki‐1 xenograft tumors [3]) was “decrease”. The “Expression of CapG protein” value (Caki‐1 xenograft tumors [3]) was “suppressed”, the “Expression of HIF‐1a, ICAM, VE‐Cadherin, and VCAM‐1” value (Caki‐1 xenograft tumors [3]) was “significantly decreased” and the “Expression of growth factors VEGF, PDGF, FGF, EGFR, and HGRF” value (Caki‐1 xenograft tumors [3]) was “Significant reduction; also recorded: decrease”. For the same substance, the “Expression of immune factors IL‐2R and GM‐CSF” value (Caki‐1 xenograft tumors [3]) was “increase”, the “M‐CSF expression” value (Caki‐1 xenograft tumors [3]) was “increase” and the “Prometastatic factors CtsB, CtsS, FoxC2, MMP‐2, MMP‐3, MMP‐8, ADAM8, and ADAMP9” value (Caki‐1 xenograft tumors [3]) was “significant decrease”. For the same substance, the “Apoptotic cells (cleaved caspase 3 positive) per DAPI positive cells” value (Caki‐1 xenograft tumors [4]) was 1.6%, the “Proliferating cells (Ki67 positive) per DAPI positive cells” value (Caki‐1 xenograft tumors [4]) was 2% and the “Reduction of tumor cell proliferation vs Veh” value (Caki‐1 xenograft tumors [4]) was 18 fold. For the same substance, the Decrease in apoptosis (Caki‐1 xenograft tumors [4]; vs Vehicle) was 0.4%, the “Decrease in cell proliferation” value (Caki‐1 xenograft tumors [4]; vs Vehicle) was 36% and the “Average weight: Average Kidney” value [5, 8] was 0.17 ± 0.06 g. For the same substance, the “Average weight: Body” value [5, 8] was 21.31 ± 5.1 g, the “Average weight: Heart” value [5, 8] was 0.11 ± 0.05 g and the “Average weight: Liver” value [5, 8] was 1.15 ± 0.37 g. For the same substance, the “Average weight: Spleen” value [5, 8] was 0.04 ± 0.017 g, the Body weight [5, 9] was 18.731 g and the Heart weight [5, 9] was 0.078 g. For the same substance, the “Left Kidney weight” value [5, 9] was 0.148 g, the Liver weight [5, 9] was 0.974 g and the “Right Kidney weight” value [5, 9] was 0.140 g. For the same substance, the Spleen weight [5, 9] was 0.035 g, the “Total body weight or organ weight, treated vs control mice” value ([5]; end of the trial) was “no notable difference” and the “Weight and well‐being during the trial” value (xenograft Caki‐1 tumors; 21 days) was “no significant change in weight or any decline in the well‐being”. For the same substance, the “Tumor burden after treatment” value (xenograft Caki‐1 tumors; 21 days of treatment, total of 7 doses) was “no change in tumor burden”.
